Results published in patent publication US11607384B2, “Lipid emulsified drug delivery systems for chemoprevention and treatment” (WESTERN UNIVERSITY OF HEALTH SCIENCES, priority 2017, dated 2023).

Columns and labels:
[1] = test system: MIA-PaCa-2 pancreatic cancer cells; assay: Colorimetric MTS cytotoxicity assay in MIA-PaCa-2 cells; type: cell-based, Human; details: for IC50: MIA-PaCa-2, 72 h
Experimental: (§1) Human PC cells MIA PaCa-2 and Panc-1 were obtained from American type culture collection (ATCC) (Rockville, Md.). Cells were maintained in Dulbecco's modified Eagle's medium (DMEM) containing 10% fetal bovine serum (FBS) obtained from ATCC. Cells were cultured at 37° C. in a humidified atmosphere of 5% CO2 and 95% air.
(§2) The cell viability assay was performed according to manufacturer's protocol with the Promega CellTitre 96 Aqueous MTS reagent (Madison, Wis., USA). Briefly, 7.5×10^3 cells were seeded in 96-well plates and incubated overnight. […] At the end of the incubation period, the growth medium was removed followed by addition of 100 μl media consisting of 20% MTS and 1% of phenazine methosulfate (PMS) and the mixture was incubated for 2 h at 37° C. MTS is bio-reduced by the cells into formazan which could be measured using a microplate reader at 490 nm. Thus, the quantity of formazan product measured by absorbance is directly proportional to the number of living cells in culture. IC50 values were determined using Graph Pad Prism software (San Diego, Calif., USA). All analysis was performed in triplicate and replicated.
A study to determine IC50 (inhibitory concentration to kill 50% of cancer cells) in in vitro cell line cultures of pancreatic cancer cell line was performed.
The cell viability assay was performed according to the manufacturer's protocol with the Promega CellTitre 96 Aqueous MTS reagent (Madison, Wis., USA). Briefly, 7.5×10^3 cells were seeded in 96-well plates and were incubated overnight. The cells were treated with different concentrations of treatment groups followed by incubation for a period of 72 hours. At the end of the incubation period, the growth medium was removed followed by addition of 100 μl media consisting of 20% MTS and 1% of phenazine methosulfate (PMS) and the mixture was incubated for 2 h at 37° C. MTS is bio-reduced by the cells into formazan which could be measured using a microplate reader at 490 nm. Thus, the quantity of formazan measured by the absorbance is directly proportional to the number of living cells in culture. […] All analysis was performed in triplicate.
(§3) The cytotoxicity of the various treatment groups were evaluated using a colorimetric MTS assay. The cell viability assay was performed according to the manufacturer's protocol with the Promega CellTitre 96 Aqueous MTS reagent (Madison, Wis., USA). Briefly, 7.5×10^3 cells were seeded in 96-well plates and were incubated overnight. The cells were treated with different concentrations of treatment groups followed by incubation for a period of 72 hours. At the end of the incubation period, the growth medium was removed followed by addition of 100 μl media consisting of 20% MTS and 1% of phenazine methosulfate (PMS) and the mixture was incubated for 2 h at 37° C. MTS is bio-reduced by the cells into formazan which could be measured using a microplate reader at 490 nm. Thus, the quantity of formazan measured by the absorbance is directly proportional to the number of living cells in culture.
Cytotoxicity was evaluated in Mia PaCa 2 pancreatic cancer cells using the colorimetric MTS assay, as described above.
A study to determine IC50 in in vitro cell line cultures of pancreatic cancer cell lines was performed. […] Cytotoxicity was evaluated using the colorometric MTS assay. The cell viability assay was performed according to the manufacturer's protocol with the Promega Cell Titre 96 Aqueous MTS reagent (Madison, Wis., USA). Briefly, 7.5×10^6 cells were seeded in 96-well plates and were incubated overnight. The cells were treated with different concentrations of treatment groups followed by incubation for a period of 72 h.

[2] = test system: Panc-1 pancreatic cancer cells; assay: Colorimetric MTS cytotoxicity assay in Panc-1 cells; type: cell-based, Human; details: Panc-1, 72 h
Experimental: as §1, §2, §3
The cell viability assay was performed according to the manufacturer's protocol with the Promega Cell Titre 96 Aqueous MTS reagent (Madison, Wis., USA). Briefly, 7.5×10^3 cells were seeded in 96-well plates and were incubated overnight. The cells were treated with different concentrations of treatment groups followed by incubation for a period of 72 h. At the end of the incubation period, the growth medium was removed followed by addition of 100 μl media consisting of 20% MTS and 1% of phenazine methosulfate (PMS) and the mixture was incubated for 2 h at 37° C. MTS is bio-reduced by the cells into formazan which could be measured using a microplate reader at 490 nm. Thus, the quantity of formazan measured by the absorbance is directly proportional to the number of living cells in culture.
A study to determine IC50 in in vitro cell line cultures of pancreatic cancer cell lines was performed. […] Cytotoxicity was evaluated using the colorometric MTS assay. […] MTS is bio-reduced by the cells into formazan which could be measured using a microplate reader at 490 nm. Thus, the quantity of formazan measured by the absorbance is directly proportional to the number of living cells in culture.
A study to determine IC50 in in vitro cell line cultures of pancreatic cancer cell lines was performed. […] Cytotoxicity was evaluated using the colorometric MTS assay.

**Q.** With `Nc1ccn([C@@H]2O[C@H](CO)[C@@H](O)C2(F)F)c(=O)n1` [Gemcitabine] as the compound, how does the IC50 ([1]; Homo sapiens, Table 14, varied Gemcitabine, fixed LOR (free or system 2) 125 μM, Sulforaphane 5 μM) read?
**A.** 692 µM

**Q.** And the IC50 ([2]; Homo sapiens, Table 16, varied Gemcitabine, fixed LOR (free or system 2) 125 μM, Sulforaphane 5 μM)?
**A.** 539 µM

**Q.** Which IC50 ([1]; Homo sapiens, Table 18, varied Paclitaxel, fixed LOR (free or system 2) 125 μM, Sulforaphane 5 μM) does the source give for `CC(=O)O[C@H]1C(=O)[C@@]2(C)[C@H]([C@H](OC(=O)c3ccccc3)[C@]3(O)C[C@H](OC(=O)[C@H](O)[C@@H](NC(=O)c4ccccc4)c4ccccc4)C(C)=C1C3(C)C)[C@]1(OC(C)=O)CO[C@@H]1C[C@@H]2O` [Paclitaxel] here?
**A.** 1.96 µM

**Q.** And the IC50 ([2]; Homo sapiens, Table 20, varied Paclitaxel, fixed LOR (free or system 2) 125 μM, Sulforaphane 5 μM)?
**A.** 2.33 µM

**Q.** What does the source list for `C[S+]([O-])CCCCN=C=S` (centres unmarked) [Sulforaphane (free), Sulforaphane]?
**A.** cell inhibition ([1]; Mia PaCa 2, at the concentration of 5 μM): did not show any significant cell inhibition; IC50 ([1]; Table 5, MTS, combinations with fixed free Sulforaphane 5 μM): 92.2 µM; IC50 ([1]; Table 6, MTS, combinations with fixed free Sulforaphane 5 μM): 92.2 µM; IC50 ([2]; Table 10, MTS, LOR alone or in combination with free Sulforaphane): 99.6 µM; IC50 ([2]; Table 11, MTS, DES alone or in combination with free Sulforaphane): 99.6 µM

**Q.** What does the source list for `CCOC(=O)N1CCC(=C2c3ccc(Cl)cc3CCc3cccnc32)CC1` [LOR (free), Loratadine]?
**A.** IC50 ([1]; Homo sapiens, Table 4, MTS): 326 µM; IC50 ([2]; Homo sapiens, Table 9, MTS): 357 µM
